Results reported in patent publication US20240116985A1, “STAPLED PEPTIDES AND METHODS THEREOF” (priority 2020, published 2024).
Read-outs that look alike come from different tables or passages of the source.

Assays:
[1] = molecular target: T1, full-length beta-Catenin (Uniprot ID P35222) (Homo sapiens, UniProt P35222); test: Fluorescence polarization IC50 (beta-catenin / 5FAM-TCF4 10-53 competition); format: binding
T1 construct: 10 nM full-length beta-Catenin (Uniprot ID P35222)
T1 sequence (P35222 1-781): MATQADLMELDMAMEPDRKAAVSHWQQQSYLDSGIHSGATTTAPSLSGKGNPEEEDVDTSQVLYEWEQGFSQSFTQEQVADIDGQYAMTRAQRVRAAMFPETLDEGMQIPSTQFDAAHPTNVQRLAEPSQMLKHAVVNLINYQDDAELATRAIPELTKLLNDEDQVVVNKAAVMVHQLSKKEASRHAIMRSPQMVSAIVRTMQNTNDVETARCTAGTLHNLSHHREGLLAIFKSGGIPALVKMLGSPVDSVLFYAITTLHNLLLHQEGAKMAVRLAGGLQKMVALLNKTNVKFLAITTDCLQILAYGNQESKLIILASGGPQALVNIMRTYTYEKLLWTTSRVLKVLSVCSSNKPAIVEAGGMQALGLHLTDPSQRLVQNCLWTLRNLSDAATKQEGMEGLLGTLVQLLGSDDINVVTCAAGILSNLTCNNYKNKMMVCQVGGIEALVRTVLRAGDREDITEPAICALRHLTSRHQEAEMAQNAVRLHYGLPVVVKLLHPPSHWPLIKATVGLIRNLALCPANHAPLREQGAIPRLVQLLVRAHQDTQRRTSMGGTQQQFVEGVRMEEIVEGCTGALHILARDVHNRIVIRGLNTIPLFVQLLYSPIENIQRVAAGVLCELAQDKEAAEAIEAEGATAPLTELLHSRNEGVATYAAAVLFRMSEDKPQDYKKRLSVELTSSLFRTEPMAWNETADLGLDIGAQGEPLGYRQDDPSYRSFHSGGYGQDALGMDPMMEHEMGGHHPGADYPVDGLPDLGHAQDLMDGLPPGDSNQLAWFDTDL

[2] = molecular target: T2, beta-catenin/TCF4 engagement (Homo sapiens, UniProt P35222); test: Nano-BRET target engagement assay (B-cat-Halo & TCF4-Luc in HEK293 cells); format: cell-based; details: read-out: NanoBRET Abs IC50
T2 construct: expressed in transfected cells; host or cells: HEK293
T2 sequence (P35222 1-781): T1 sequence (P35222 1-781)

[3] = fluorescence polarization; read-out: beta-Catenin FP IC50

| SMILES | IC50 [1, 3] [nM] | IC50 [2] [nM] | IC50 ([2]; absolute IC50) [nM] | IC50 ([1]; read-out: beta-Catenin FP IC50; fluorescence polarization) [nM] |
| --- | --- | --- | --- | --- |
| CC(=O)N1CCC[C@]12CC=CCCCC1(CCCC=CCCCOC(=O)N3CC[C@@](C(=O)N[C@@H](Cc4ccsc4)C(=O)N[C@@H](Cc4csc5ccccc45)C(=O)N[C@@H](Cc4ccccc4C(N)=O)C(N)=O)(C3)NC(=O)[C@H](CC(C)C)NC(=O)[C@H](Cc3ccccc3)NC(=O)[C@H](C)NC(=O)[C@H](C)NC(=O)[C@H](CN(CC(=O)O)CC(F)(F)F)NC(=O)[C@H](CC(=O)O)NC1=O)NC(=O)[C@H](CC(C)(C)C)NC(=O)[C@H](CC(=O)O)NC2=O (stereo partly drawn) [I-1707, Ac-PL3-Asp-Npg-B5-Asp-TfeGA-Ala-Ala-Phe-Leu-PyrS2-3Thi-BztA-2cbmf-NH2] | 19 |  | 6100 |  |
| CC(=O)N1CCC[C@]12CC=CCCCC1(CCCC=CCCCOC(=O)N3CC[C@@](C(=O)N[C@@H](Cc4ccsc4)C(=O)N[C@@H](Cc4csc5ccccc45)C(=O)N[C@@H](CC(N)=O)C(N)=O)(C3)NC(=O)[C@H](CO)NC(=O)[C@H](Cc3ccccc3)NC(=O)[C@H](C)NC(=O)[C@H](C)NC(=O)[C@H](Cc3cccc(C(=O)O)c3)NC(=O)[C@H](CC(=O)O)NC1=O)NC(=O)[C@H](CC(C)(C)C)NC(=O)[C@H](CC(=O)O)NC2=O (stereo partly drawn) [I-2045, Ac-PL3-Asp-Npg-B5-Asp-3COOHF-Ala-Ala-Phe-Ser-PyrS2-3Thi-BztA-Asn-NH2] | 5 | 13500 |  |  |
| CC(=O)N1CCC[C@]12CC=CCCCC1(CCCC=CCCCOC(=O)N3CC[C@@](C(=O)N[C@@H](Cc4ccsc4)C(=O)N[C@@H](Cc4csc5ccccc45)C(=O)N[C@@H](CC(C)C)C(N)=O)(C3)NC(=O)[C@H]([C@@H](C)O)NC(=O)[C@H](Cc3ccccc3)NC(=O)[C@H](C)NC(=O)[C@H](CCCCNC(C)C)NC(=O)[C@H](CN(CC(=O)O)CC(F)(F)F)NC(=O)[C@H](CC(=O)O)NC1=O)NC(=O)[C@H](CC(C)(C)C)NC(=O)[C@H](CC(=O)O)NC2=O (stereo partly drawn) [I-1760, Ac-PL3-Asp-Npg-B5-Asp-TfeGA-iPrLys-Ala-Phe-Thr-PyrS2-3Thi-BztA-Leu-NH2] | 32 |  | > 20000 |  |
| CC(=O)N1CCC[C@]12CC=CCCCC1(CCCC=CCCCOC(=O)N3CC[C@@](C(=O)N[C@@H](Cc4ccsc4)C(=O)N[C@@H](Cc4csc5ccccc45)C(=O)N[C@@H](CCC(N)=O)C(N)=O)(C3)NC(=O)[C@H](CC(C)C)NC(=O)[C@H](Cc3ccccc3)NC(=O)[C@H](C)NC(=O)[C@H](C)NC(=O)[C@H](CC(=O)O)NC(=O)[C@H](CC(=O)OCCSSc3ccccc3)NC1=O)NC(=O)[C@H](CC(C)(C)C)NC(=O)[C@H](CC(=O)O)NC2=O (stereo partly drawn) [I-1954, Ac-PL3-Asp-Npg-B5-[EtSSPh]AspE-Asp-Ala-Ala-Phe-Leu-PyrS2-3Thi-BztA-Gln-NH2] |  | > 20000 |  | 994 |
| CCCC[C@@H]1NC(=O)[C@H](Cc2ccccc2)NC(=O)[C@H](C)NC(=O)C(C)(C)NC(=O)[C@H](Cc2cccc(C(=O)O)c2)NC(=O)[C@H](CC(=O)O)NC(=O)C2(CCCC=CCCCOC(=O)N3CC[C@@](C(=O)N[C@@H](Cc4ccsc4)C(=O)N[C@@H](Cc4csc5ccccc45)C(=O)N[C@@H](CCC(=O)NCC)C(N)=O)(C3)NC1=O)CCCC=CC[C@]1(CCCN1C(C)=O)C(=O)N[C@@H](CC(=O)O)C(=O)N[C@@H](CC(C)(C)C)C(=O)N2 (stereo partly drawn) [I-2552, Ac-PL3-Asp-Npg-B5-Asp-3COOHF-Aib-Ala-Phe-nLeu-PyrS2-3Thi-BztA-NHEt]GlnR-NH2] | 12 |  | 10400 |  |
| CC(=O)NCCCC[C@@H]1NC(=O)[C@H](Cc2ccccc2)NC(=O)[C@H](C)NC(=O)[C@H](C)NC(=O)[C@H](Cc2cccc(C(=O)O)c2)NC(=O)[C@H](CC(=O)O)NC(=O)C2(CCCC=CCCCOC(=O)N3CC[C@@](C(=O)N[C@@H](Cc4ccccc4C(F)(F)F)C(=O)N[C@@H](Cc4csc5ccccc45)C(=O)N[C@@H](CCC(=O)N(C)C)C(N)=O)(C3)NC1=O)CCCC=CC[C@]1(CCCN1C(C)=O)C(=O)N[C@@H](CC(=O)O)C(=O)N[C@@H](CC(C)(C)C)C(=O)N2 (stereo partly drawn) [I-2539, Ac-PL3-Asp-Npg-B5-Asp-3COOHF-Ala-Ala-Phe-AcLys-PyrS2-2F3MeF-BztA-Me2Gln-NH2] | 11 |  | 3600 |  |

More lines, main results first:

| IC50 [1, 3] [nM] | IC50 [2] [nM] | IC50 ([2]; absolute IC50) [nM] | SMILES | IC50 ([1]; read-out: beta-Catenin FP IC50; fluorescence polarization) [nM] |
| --- | --- | --- | --- | --- |
| 205 | > 20000 |  | CC(=O)N1CCC[C@]12CC=CCCCC1(CCCC=CCCCOC(=O)N3CCC(C(=O)N[C@@H](Cc4ccccc4C(F)(F)F)C(=O)N[C@@H](Cc4csc5ccccc45)C(=O)N[C@@H](CCC(N)=O)C(N)=O)(CC3)NC(=O)[C@H](CC(C)C)NC(=O)[C@H](Cc3ccccc3)NC(=O)[C@H](C)NC(=O)[C@H](C)NC(=O)[C@H](Cc3cccc(C(=O)O)c3)NC(=O)[C@H](CC(=O)O)NC1=O)NC(=O)[C@H](CC(C)(C)C)NC(=O)[C@H](CC(=O)O)NC2=O (stereo partly drawn) [I-2581, Ac-PL3-Asp-Npg-B5-Asp-3COOHF-Ala-Ala-Phe-Leu-SPip2-2F3MeF-BztA-Gln-NH2] |  |
| 11 |  | 5400 | CC(=O)N1CCC[C@]12CC=CCCCC1(CCCC=CCCCOC(=O)N3CC[C@@](C(=O)N[C@@H](Cc4ccccc4Cl)C(=O)N[C@@H](Cc4csc5ccccc45)C(=O)N[C@@H](CCC(N)=O)C(N)=O)(C3)NC(=O)[C@H](CC(C)C)NC(=O)[C@H](Cc3ccccc3)NC(=O)[C@H](C)NC(=O)C(C)(C)NC(=O)[C@H](Cc3cccc(C(=O)O)c3)NC(=O)[C@H](CC(=O)O)NC1=O)NC(=O)[C@H](CC(C)(C)C)NC(=O)[C@H](CC(=O)O)NC2=O (stereo partly drawn) [I-1686, Ac-PL3-Asp-Npg-B5-Asp-3COOHF-Aib-Ala-Phe-Leu-PyrS2-2C1F-BztA-Gln-NH2] |  |
| 152 |  | 27300 | CC(=O)N1CCC[C@]12CC=CCCCCC1(CCCCC=CCCOC(=O)N3CC[C@@](C(=O)N[C@@H](Cc4ccccc4C(F)(F)F)C(=O)N[C@@H](Cc4csc5ccccc45)C(=O)N[C@@H](CCC(N)=O)C(N)=O)(C3)NC(=O)[C@H](CC(C)C)NC(=O)[C@H](Cc3ccccc3)NC(=O)[C@H](C)NC(=O)[C@H](C)NC(=O)[C@H](Cc3cccc(C(=O)O)c3)NC(=O)[C@H](CC(=O)O)NC1=O)NC(=O)[C@H](CC(C)(C)C)NC(=O)[C@H](CC(=O)O)NC2=O (stereo partly drawn) [I-2508, Ac-PL3-Asp-Npg-B6-Asp-3COOHF-Ala-Ala-Phe-Leu-PyrS1-2F3MeF-BztA-Gln-NH2] |  |
| 349 |  | 36700 | COC(=O)C[C@@H]1NC(=O)[C@H](CC(=O)O)NC(=O)C2(CCCC=CCCCOC(=O)N3CC[C@@](C(=O)N[C@@H](Cc4ccsc4)C(=O)N[C@@H](Cc4csc5ccccc45)C(=O)N[C@@H](CCC(N)=O)C(N)=O)(C3)NC(=O)[C@H](CC(C)C)NC(=O)[C@H](Cc3ccccc3)NC(=O)[C@H](C)NC(=O)[C@H](C)NC1=O)CCCC=CC[C@]1(CCCN1C(C)=O)C(=O)N[C@@H](CC(=O)O)C(=O)N[C@@H](CC(C)(C)C)C(=O)N2 (stereo partly drawn) [I-2361, Ac-PL3-Asp-Npg-B5-Asp-[Me]AspE-Ala-Ala-Phe-Leu-PyrS2-3Thi-BztA-Gln-NH2] |  |
| 20 |  | 10900 | CC(=O)N1CCC[C@]12CC=CCCCC1(CCCC=CCCCOC(=O)N3CC[C@@](C(=O)N[C@@H](Cc4ccccc4C(F)(F)F)C(=O)N[C@@H](Cc4csc5ccccc45)C(=O)N[C@@H](CCC(N)=O)C(N)=O)(C3)NC(=O)[C@H](CC(C)C)NC(=O)[C@H](Cc3ccccc3)NC(=O)[C@H](C)NC(=O)[C@H](C)NC(=O)[C@H](Cc3ccccc3C(=O)O)NC(=O)[C@H](CC(=O)O)NC1=O)NC(=O)[C@H](CC(C)(C)C)NC(=O)[C@H](CC(=O)O)NC2=O (stereo partly drawn) [I-1656, Ac-PL3-Asp-Npg-B5-Asp-2COOHF-Ala-Ala-Phe-Leu-PyrS2-2F3MeF-BztA-Gln-NH2] |  |
| 71 |  | 37900 | CC(=O)N1CCC[C@]12CC=CCCCC1(CCCC=CCCCCCC[C@@](C)(C(=O)N[C@@H](Cc3ccccc3)C(=O)N[C@@H](Cc3csc4ccccc34)C(=O)N[C@@H](CCC(N)=O)C(N)=O)NC(=O)[C@H](CC(C)C)NC(=O)[C@H](Cc3ccccc3)NC(=O)[C@H](C)NC(=O)[C@H](C)NC(=O)[C@H](CCC(=O)O)NC(=O)[C@H](CC(=O)O)NC1=O)NC(=O)[C@H](CCO)NC(=O)[C@H](CC(=O)O)NC2=O (stereo partly drawn) [I-1546, Ac-PL3-Asp-Hse-B5-Asp-Glu-Ala-Ala-Phe-Leu-S8-Phe-BztA-Gln-NH2] |  |
| 26 |  | 18100 | CC(=O)N1CCC[C@]12CC=CCCCC1(CCCC=CCCCCCC[C@@](C)(C(=O)N[C@@H](Cc3ccccc3)C(=O)N[C@@H](Cc3csc4ccccc34)C(=O)N[C@@H](CCC(N)=O)C(N)=O)NC(=O)[C@H](CCC(N)=O)NC(=O)[C@H](Cc3ccccc3)NC(=O)[C@H](C)NC(=O)[C@H](C)NC(=O)[C@H](CCC(=O)O)NC(=O)[C@H](CC(=O)O)NC1=O)NC(=O)[C@H](CC(C)C)NC(=O)[C@H](CC(=O)O)NC2=O (stereo partly drawn) [I-1458, Ac-PL3-Asp-Leu-B5-Asp-Glu-Ala-Ala-Phe-Gln-S8-Phe-BztA-Gln-NH2] |  |
